Blank lines part the entries; values can stand above or below the compound they belong to. Active and inactive are the calls of the source.
Legend:
[1] = target: Sphingosine 1-phosphate receptor 2 (Homo sapiens, UniProt O95136); experiment: Dose Response Cell Based Assay for Agonists of the S1P2 Receptor. [Related pubchem assays: 729, 736, 843 ]; assay type: functional
[2] = target: Disintegrin and metalloproteinase domain-containing protein 17 (Homo sapiens, UniProt P78536); experiment: inhibition of ADAM17 substrate cleavage – biochemical, quenched FRET substrate, counter-screen for ADAM10 exosite inhibitor project, dose response (AID 743253)
[3] = viability of HCT116 lacking mutant beta-catenin – cell-based, human colon tumor, dose response (AID 1045); assay type: functional;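 further: HCT116 colon tumor cells with beta catenin knocked out; cells exposed to compound for 60 hours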
[4] = potency of ADAM10 substrate cleavage blockers – biochemical, QFRET, dose response (AID 743254);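 further: ADAM10 enzyme with the DM2 quenched FRET peptide as substrate; EDANS fluorescence gain as the protease cuts the substrate; inhibitor potency against ADAM10 proteolytic activity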
[5] = Luminescence Cell-Based Dose Retest to Confirm Inhibitors of Cancer Stem Cells. [Related pubchem assays (depositor defined):AID2717, AID2721]; assay type: functional; conditions: Homo sapiens
[6] = viability of PTEN-deleted HCT116 cells – cell-based, HCT116 PTEN knockout, dose response (AID 1047); assay type: functional;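 further: HCT116 colon tumor cells with PTEN knocked out; cells exposed to compound for 60 hours before readout; potency for loss of cell viability measured by luminescence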
Caspase-6 = target: T1, Caspase-6 (Homo sapiens, UniProt P55212); experiment: inhibition of CASP6 peptide cleavage – biochemical, VEID-R110 fluorescence, cherry-pick, dose response (AID 720632)
T1 sequence (P55212 whole entry): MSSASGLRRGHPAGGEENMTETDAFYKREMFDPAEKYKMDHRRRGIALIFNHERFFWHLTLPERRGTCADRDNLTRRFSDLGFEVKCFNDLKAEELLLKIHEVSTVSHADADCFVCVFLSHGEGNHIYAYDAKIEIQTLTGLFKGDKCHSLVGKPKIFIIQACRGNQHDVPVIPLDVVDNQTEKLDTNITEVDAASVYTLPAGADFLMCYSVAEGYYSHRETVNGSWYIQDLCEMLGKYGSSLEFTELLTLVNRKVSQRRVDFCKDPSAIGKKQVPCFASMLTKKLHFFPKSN

[7] = target: T2, Sentrin-specific protease 6 (Homo sapiens, UniProt Q9GZR1); assay type: functional;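 further: Luminescence-based dose-response confirmatory assay of SENP6 inhibition, following up an ultra-high-throughput screen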
T2 sequence (Q9GZR1 whole entry): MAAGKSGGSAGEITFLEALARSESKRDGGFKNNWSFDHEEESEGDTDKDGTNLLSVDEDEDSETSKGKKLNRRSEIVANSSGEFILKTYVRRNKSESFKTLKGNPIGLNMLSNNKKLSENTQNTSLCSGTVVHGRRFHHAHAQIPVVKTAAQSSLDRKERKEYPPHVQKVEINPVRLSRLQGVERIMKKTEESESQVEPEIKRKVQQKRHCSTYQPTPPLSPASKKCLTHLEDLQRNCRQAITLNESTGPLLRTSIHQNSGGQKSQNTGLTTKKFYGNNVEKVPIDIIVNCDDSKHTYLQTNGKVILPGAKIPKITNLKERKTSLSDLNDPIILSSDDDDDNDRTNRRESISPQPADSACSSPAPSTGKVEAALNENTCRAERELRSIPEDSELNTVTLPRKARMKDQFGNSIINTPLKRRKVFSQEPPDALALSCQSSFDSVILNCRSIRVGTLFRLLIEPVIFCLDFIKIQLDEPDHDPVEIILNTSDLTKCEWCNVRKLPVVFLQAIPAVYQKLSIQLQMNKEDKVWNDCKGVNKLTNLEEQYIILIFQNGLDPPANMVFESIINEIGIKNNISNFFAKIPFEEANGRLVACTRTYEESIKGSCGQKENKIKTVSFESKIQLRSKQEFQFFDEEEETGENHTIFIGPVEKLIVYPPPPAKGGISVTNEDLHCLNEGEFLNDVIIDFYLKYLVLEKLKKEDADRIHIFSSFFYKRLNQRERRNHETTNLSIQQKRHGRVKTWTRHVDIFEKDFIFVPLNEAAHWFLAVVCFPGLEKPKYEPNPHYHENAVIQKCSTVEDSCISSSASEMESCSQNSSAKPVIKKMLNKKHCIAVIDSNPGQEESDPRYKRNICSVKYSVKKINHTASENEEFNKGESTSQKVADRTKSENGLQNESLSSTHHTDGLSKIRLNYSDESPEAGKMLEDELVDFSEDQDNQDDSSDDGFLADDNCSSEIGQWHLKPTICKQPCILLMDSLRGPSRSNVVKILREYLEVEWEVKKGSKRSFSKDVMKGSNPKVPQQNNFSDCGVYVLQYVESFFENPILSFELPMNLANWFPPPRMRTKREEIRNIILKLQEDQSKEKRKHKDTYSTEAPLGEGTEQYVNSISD

Caspase-8 = Caspase-8 (Homo sapiens, UniProt Q14790); experiment: inhibitors of purified CASP8 protease – biochemical, Z-IETD-R110 fluorescence, cherry-picked samples, selectivity assay for caspase-6 inhibitor project, dose response (AID 743294)
Caspase-3 = target: T3, Caspase-3 (Homo sapiens, UniProt P42574); assay type: functional;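 further: Dose-response selectivity test against caspase-3 for candidate inhibitors of sentrin-specific proteases (SENPs)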
T3 sequence (P42574 whole entry): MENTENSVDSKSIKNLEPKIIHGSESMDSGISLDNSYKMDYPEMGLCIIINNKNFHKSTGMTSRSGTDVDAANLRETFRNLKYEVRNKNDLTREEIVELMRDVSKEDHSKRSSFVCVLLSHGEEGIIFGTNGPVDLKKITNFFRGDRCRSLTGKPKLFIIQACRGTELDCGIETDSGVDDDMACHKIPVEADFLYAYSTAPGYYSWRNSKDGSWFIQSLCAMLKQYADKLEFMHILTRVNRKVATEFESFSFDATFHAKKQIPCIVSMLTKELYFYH

[8] = target: T4, Mitochondrial peptide methionine sulfoxide reductase (Bos taurus, UniProt P54149); experiment: Absorbance-based biochemical high throughput dose response assay for activators of Methionine sulfoxide reductase A (MsrA).; assay type: functional
T4 sequence (P54149 whole entry): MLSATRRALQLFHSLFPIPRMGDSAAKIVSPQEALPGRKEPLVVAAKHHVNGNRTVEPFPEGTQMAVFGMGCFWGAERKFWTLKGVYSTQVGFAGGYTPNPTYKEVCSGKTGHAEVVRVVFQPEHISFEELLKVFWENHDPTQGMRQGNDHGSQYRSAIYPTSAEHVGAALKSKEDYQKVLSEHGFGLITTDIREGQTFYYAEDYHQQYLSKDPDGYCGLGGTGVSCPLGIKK

Caspase-9 = Caspase-9 (Homo sapiens, UniProt P55211); experiment: inhibitors of purified CASP9 protease – biochemical, fluorescence, plate reader, cherry-picked samples, selectivity assay for caspase-6 inhibitor project, dose response (AID 743293)
Caspase-7 = Caspase-7 (Homo sapiens, UniProt P55210); experiment: caspase-7 enzyme inhibition, selectivity check – biochemical, DEVD-R110 fluorescence, cherry-pick, selectivity assay for caspase-6 inhibitor project, dose response (AID 743295); assay type: functional
[9] = target: T5, Sentrin-specific protease 8 (Homo sapiens, UniProt Q96LD8); assay type: functional;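 further: luminescence read-out of SENP8 inhibition, dose-response confirmation following an ultra-high-throughput screen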
T5 sequence (Q96LD8 whole entry): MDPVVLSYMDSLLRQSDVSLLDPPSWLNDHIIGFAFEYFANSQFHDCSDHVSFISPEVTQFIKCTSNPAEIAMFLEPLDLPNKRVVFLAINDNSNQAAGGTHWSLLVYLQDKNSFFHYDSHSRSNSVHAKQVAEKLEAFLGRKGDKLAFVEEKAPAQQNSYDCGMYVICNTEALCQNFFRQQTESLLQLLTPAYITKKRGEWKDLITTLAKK

[10] = target: T6, Sentrin-specific protease 7 (Homo sapiens, UniProt Q9BQF6); assay type: functional;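 further: Luminescence-based dose-response confirmation of ultra-high-throughput screening hits, measuring inhibition of SENP7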
T6 sequence (Q9BQF6 whole entry): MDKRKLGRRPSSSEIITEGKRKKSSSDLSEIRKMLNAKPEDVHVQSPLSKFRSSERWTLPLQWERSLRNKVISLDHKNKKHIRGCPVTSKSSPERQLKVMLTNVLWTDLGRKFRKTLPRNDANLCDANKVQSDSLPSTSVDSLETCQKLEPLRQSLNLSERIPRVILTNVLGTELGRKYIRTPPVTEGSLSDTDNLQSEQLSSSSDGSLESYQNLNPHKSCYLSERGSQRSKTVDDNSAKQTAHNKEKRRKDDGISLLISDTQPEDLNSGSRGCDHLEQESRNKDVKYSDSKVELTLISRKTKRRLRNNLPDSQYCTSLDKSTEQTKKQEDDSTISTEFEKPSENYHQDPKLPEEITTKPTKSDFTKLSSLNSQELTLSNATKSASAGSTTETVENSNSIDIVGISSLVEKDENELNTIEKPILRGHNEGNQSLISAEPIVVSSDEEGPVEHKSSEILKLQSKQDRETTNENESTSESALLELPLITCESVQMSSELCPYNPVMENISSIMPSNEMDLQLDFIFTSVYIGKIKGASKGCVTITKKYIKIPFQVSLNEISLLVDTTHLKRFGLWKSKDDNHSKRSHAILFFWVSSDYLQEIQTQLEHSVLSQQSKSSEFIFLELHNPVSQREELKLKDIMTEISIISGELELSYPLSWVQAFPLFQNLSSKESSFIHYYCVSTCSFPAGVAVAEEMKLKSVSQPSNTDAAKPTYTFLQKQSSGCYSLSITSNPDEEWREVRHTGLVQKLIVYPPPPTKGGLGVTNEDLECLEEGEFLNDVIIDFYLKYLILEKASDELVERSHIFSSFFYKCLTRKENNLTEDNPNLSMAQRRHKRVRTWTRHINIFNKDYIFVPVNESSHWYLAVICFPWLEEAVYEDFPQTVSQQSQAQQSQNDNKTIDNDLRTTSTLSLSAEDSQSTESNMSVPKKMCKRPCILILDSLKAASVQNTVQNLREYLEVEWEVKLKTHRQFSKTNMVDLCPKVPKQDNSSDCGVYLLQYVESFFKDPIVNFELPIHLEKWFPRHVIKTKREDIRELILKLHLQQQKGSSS

[11] = target: T7, Tyrosine-protein phosphatase non-receptor type 7 (Homo sapiens, UniProt P35236); experiment: HePTP tyrosine phosphatase activity blockers – biochemical, absorbance, leukemia target, primary screen (AID 521); assay type: functional
T7 sequence (P35236 whole entry): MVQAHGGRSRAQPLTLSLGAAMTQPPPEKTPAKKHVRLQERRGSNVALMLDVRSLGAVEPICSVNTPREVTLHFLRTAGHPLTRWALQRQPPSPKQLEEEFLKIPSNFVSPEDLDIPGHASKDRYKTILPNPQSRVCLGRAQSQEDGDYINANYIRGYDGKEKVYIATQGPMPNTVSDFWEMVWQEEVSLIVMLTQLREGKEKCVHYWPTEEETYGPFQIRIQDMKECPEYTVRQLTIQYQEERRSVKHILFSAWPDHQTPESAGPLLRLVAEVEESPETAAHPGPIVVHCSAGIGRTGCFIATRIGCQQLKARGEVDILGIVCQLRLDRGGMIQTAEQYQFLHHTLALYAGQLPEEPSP

[12] = target: Metabotropic glutamate receptor 7 (Homo sapiens, UniProt Q14831); experiment: potentiation of glutamate EC20 at mGlu7 – cell-based, calcium mobilization, Galpha15, dose response (AID 743384); assay type: functional
[13] = target: T8, Polyadenylate-binding protein 1 (Homo sapiens, UniProt P11940); experiment: MLLE binding blockers, Cy5 peptide tracer – biochemical, fluorescence polarization, Cy5-PAM2 peptide, secondary, miRNA deadenylation inhibitor project, dose response (AID 602260); assay type: functional; conditions: read-out: IC50_Mean
[14] = target: T8, Polyadenylate-binding protein 1; experiment: MLLE domain peptide-binding blockers, IC50 – biochemical, fluorescence polarization, FITC-PAM2 peptide, dose response (AID 602259); assay type: functional; conditions: read-out: IC50_Mean

T8 sequence (P11940 whole entry, the tested form may be a part): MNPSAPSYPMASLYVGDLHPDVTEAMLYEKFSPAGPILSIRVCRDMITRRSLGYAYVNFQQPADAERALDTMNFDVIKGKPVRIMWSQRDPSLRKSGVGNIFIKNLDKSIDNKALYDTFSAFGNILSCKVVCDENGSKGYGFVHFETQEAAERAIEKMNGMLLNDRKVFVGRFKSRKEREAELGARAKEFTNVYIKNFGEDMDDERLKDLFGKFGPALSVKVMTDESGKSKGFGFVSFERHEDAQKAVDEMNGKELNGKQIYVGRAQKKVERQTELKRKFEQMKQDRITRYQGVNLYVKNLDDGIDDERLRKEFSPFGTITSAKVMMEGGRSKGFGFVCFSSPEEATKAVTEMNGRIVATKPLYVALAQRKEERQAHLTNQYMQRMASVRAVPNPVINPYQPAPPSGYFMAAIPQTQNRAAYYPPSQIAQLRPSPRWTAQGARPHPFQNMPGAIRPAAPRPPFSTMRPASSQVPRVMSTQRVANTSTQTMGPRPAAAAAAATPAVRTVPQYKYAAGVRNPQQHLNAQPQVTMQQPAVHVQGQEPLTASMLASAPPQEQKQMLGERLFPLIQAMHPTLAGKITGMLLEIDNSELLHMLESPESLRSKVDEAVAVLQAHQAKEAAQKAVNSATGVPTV
Metabotropic glutamate receptor 7, sequence (Q14831 whole entry): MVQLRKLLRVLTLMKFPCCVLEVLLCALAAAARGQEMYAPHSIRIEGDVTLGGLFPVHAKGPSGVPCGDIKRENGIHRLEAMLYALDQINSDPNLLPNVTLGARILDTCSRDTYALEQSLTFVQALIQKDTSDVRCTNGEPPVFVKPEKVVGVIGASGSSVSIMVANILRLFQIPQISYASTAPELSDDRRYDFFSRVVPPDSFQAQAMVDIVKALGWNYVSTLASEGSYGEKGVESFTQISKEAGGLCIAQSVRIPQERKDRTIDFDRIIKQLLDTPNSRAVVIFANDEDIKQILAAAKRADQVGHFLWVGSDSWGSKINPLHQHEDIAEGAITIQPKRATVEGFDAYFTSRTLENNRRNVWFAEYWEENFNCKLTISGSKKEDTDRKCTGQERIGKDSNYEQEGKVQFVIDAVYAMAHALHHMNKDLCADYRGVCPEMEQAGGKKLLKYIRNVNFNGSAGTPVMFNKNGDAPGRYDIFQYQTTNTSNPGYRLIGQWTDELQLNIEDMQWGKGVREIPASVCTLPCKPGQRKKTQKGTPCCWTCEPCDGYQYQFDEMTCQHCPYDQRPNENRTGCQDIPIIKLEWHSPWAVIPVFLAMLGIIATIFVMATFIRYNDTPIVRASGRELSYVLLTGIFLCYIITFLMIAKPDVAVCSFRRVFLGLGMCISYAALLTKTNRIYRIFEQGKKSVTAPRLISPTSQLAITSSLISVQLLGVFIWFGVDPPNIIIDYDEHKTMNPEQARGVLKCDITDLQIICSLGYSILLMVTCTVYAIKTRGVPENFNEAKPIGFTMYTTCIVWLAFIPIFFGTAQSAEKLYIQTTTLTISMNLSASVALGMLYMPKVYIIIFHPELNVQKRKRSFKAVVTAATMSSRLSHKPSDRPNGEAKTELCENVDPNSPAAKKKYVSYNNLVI
Caspase-8, sequence (Q14790 217-374 limits assumed): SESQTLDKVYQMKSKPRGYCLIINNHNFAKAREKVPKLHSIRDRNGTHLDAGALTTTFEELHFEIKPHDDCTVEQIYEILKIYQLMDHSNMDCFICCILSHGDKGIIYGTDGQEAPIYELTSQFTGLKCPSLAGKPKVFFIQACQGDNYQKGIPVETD
Caspase-8, sequence (Q14790 385-479 limits assumed): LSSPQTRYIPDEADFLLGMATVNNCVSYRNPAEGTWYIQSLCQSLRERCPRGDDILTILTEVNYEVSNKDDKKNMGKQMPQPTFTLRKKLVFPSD
Caspase-9, sequence (P55211 1-315 limits assumed): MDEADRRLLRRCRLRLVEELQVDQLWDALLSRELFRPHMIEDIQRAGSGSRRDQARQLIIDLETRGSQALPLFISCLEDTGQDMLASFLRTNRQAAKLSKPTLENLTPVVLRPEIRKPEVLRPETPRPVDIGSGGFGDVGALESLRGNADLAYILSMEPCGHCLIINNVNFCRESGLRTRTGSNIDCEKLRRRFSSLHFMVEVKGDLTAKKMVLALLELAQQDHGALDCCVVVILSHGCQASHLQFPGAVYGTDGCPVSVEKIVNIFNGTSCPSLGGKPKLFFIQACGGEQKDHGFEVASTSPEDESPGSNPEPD
Caspase-9, sequence (P55211 331-416 limits assumed): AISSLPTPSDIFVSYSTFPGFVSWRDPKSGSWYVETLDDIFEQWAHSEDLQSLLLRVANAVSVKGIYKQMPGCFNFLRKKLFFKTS
Caspase-7, sequence (P55210 24-198 limits assumed): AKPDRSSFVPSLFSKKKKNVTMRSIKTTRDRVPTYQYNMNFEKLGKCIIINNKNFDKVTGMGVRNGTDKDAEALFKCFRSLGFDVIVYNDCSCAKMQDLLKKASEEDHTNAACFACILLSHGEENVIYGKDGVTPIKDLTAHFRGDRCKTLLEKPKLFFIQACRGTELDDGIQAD
Caspase-7, sequence (P55210 207-303 limits assumed): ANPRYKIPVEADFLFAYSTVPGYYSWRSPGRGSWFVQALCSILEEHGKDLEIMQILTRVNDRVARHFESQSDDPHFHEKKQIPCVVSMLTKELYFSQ
Disintegrin and metalloproteinase domain-containing protein 17, sequence (P78536 whole entry, the tested form may be a part): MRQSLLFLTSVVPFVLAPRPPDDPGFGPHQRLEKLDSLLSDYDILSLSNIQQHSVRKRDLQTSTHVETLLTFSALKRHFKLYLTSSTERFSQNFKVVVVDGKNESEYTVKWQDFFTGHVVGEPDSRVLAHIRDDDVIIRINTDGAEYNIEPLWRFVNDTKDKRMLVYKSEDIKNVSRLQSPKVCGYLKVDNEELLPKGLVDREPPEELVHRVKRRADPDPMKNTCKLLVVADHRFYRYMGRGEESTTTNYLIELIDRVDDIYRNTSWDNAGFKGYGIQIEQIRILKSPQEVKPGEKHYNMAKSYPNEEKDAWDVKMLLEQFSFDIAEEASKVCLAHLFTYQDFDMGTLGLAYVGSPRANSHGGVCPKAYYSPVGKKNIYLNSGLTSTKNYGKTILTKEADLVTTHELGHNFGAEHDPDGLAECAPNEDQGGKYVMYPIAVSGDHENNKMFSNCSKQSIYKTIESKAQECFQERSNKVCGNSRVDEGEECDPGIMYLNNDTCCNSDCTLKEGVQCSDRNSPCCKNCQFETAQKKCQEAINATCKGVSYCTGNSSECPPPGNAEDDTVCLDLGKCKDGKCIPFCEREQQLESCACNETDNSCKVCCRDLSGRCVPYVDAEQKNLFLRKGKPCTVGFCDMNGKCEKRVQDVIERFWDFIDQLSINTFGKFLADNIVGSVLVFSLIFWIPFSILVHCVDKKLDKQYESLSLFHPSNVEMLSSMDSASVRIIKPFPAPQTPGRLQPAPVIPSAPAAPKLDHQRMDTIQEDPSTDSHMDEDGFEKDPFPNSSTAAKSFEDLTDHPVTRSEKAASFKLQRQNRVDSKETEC
Sphingosine 1-phosphate receptor 2, sequence (O95136 whole entry, the tested form may be a part): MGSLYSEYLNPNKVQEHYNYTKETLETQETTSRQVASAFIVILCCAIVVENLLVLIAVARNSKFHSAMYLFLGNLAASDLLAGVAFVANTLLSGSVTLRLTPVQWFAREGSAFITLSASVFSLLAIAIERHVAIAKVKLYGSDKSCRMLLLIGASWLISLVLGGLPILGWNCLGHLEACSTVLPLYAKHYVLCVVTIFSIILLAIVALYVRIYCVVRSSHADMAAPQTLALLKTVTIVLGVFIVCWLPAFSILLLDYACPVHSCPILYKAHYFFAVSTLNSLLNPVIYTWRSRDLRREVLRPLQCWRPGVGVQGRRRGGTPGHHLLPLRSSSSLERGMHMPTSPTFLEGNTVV

Compound: COc1ccc(C(c2c[nH]c3ccccc23)c2c[nH]c3ccccc23)cc1O
- EC50 [1]: > 50 µM (not active)
- IC50 [2]: > 69.5 µM (inactive)
- EC50 [3]: 558 µM (active)
- IC50 [4]: > 69.5 µM (inactive)
- AC50 [5]: 4.09 µM (active)
- EC50 [6]: 31 µM (active)

- AC50 (Caspase-6): 2.49 µM (active)
- IC50 [7]: 4.39 µM (active)
- AC50 (Caspase-8): 25.5 µM (active)
- IC50 (Caspase-3): 8.76 µM (active)
- EC50 [8]: 57.5 µM (inactive)
- AC50 (Caspase-9): 25.5 µM (active)
- AC50 (Caspase-7): 17.4 µM (active)
- IC50 [10]: 6.5 µM (active)
Compound: O=C(COC(=O)c1ccc([N+](=O)[O-])s1)Nc1ccccc1
- IC50 [9]: 4.04 µM (active)

- IC50 [11]: > 100 µM (not active)
Compound: O=C(NCc1ccc(F)cc1)c1cc2ccccn2n1

- EC50 [12]: 2.4 µM (active)
- IC50 [13]: > 66 µM (inactive)
- IC50 [14]: > 66 µM (inactive)
Compound: CC(=O)Nc1ccc(SCC(=O)c2cc(C)n(-c3ccccc3F)c2C)cc1

Reference: ChEMBL document CHEMBL1201862, “PubChem BioAssay data set” (2004)
